{"source": "patent US11576914B2", "about": "“Drug for treating or preventing disorder caused by TGF-β signaling, and application thereof” (THE DOSHISHA, priority 2017, dated 2023)", "key": {"[1]": {"test_system": "immortalized human corneal endothelial cells (iHCEC)", "assay": "Cell damage by ER stress induced by thapsigargin", "format": "cell-based", "settings": "24 hours pretreatment, 20 μM thapsigargin 3 hours", "experimental": "The medium was removed from a culture dish in which immortalized human corneal endothelial cells (iHCEC) were being cultured, and the cells were supplemented with 1×PBS (−) that was preheated to 37° C., and were washed. This operation was repeated twice. The cells were supplemented again with 1×PBS (−) and incubated for 5 minutes at 37° C. (5% CO2). After removing the PBS (−), the cells were supplemented with 0.05% Trypsin-EDTA (Nacalai Tesque, 32778-34) and incubated for 5 minutes at 37° C. (5% CO2). The cells were then suspended in a medium, and collected by centrifugation at 1500 rpm for 3 minutes. DMEM (Nacalai Tesque, 08456-36)+10% FBS (Biowest, S1820-500)+1% P/S (Nacalai Tesque, 26252-94) was used as the medium. Immortalized human corneal endothelial cells (lot: iHCEC1-1) were seeded on a 12-well plate at a ratio of 8×10^4 cells per well and cultured for 48 hours at 37° C. (5% CO2) while using DMEM+10% FBS+1% P/S as the medium. The medium was then removed, and each inhibitor was added to culture the cells for 24 hours using DMEM+2% FBS+1% P/S as the medium. The medium was then removed. A medium (DMEM+2% FBS+1% P/S) containing 20 μM thapsigargin (Wako, 209-17281) and AKP-001 was added to culture the cells for 3 hours. Then, the cell morphology and apoptosis were observed using a phase contrast microscope."}, "corneal endothelium": {"test_system": "corneal endothelium", "assay": "Histological analysis of the corneal endothelium after instillation", "format": "in vivo", "from_the_text": "Rabbits were euthanized, and then their eyes were removed and histologically analyzed. Expression of markers related to corneal endothelial functions was confirmed by immunostaining. The sclerocornea fragments were fixed with 0.5% paraformaldehyde and then blocked with 1% bovine serum albumin. As primary antibodies, ZO-1 antibody (Life Technologies) and N-cadherin antibody (BD Biosciences), which are indicators of the barrier function of corneal endothelial cells, and Na^+/K^+-ATPase antibody (MILLIPORE), which is an indicator of pump functions, were added, followed by standing at 4° C. overnight. […] Further, nuclear staining was performed using DAPI (Dojindo). To observe the cell morphology, actin was stained using Phalloidin (Life Technologies). The stained sclerocornea fragments were mounted in slide glasses and observed using a confocal fluorescence microscope (TCS SPE, Leica).\nIn addition, rabbits were euthanized, and then their eyes were removed. To assess cell death, the sclerocornea fragments were stained with Annexin V (Zymed Laboratories) and PI (Zymed Laboratories), fixed with 0.5% paraformaldehyde, and nuclear stained with DAPI (Dojindo). The stained sclerocornea fragments were mounted in slide glass and observed using a confocal fluorescence microscope (TCS SPE, Leica). Staurosporine (10 μM, Merck Millipore) was administered into the anterior chamber of a rabbit eyeball, and after 24 hours, it was used as a positive control."}, "[2]": {"test_system": "Fuchs corneal endothelial dystrophy (FECD) model mice (Col8a2 Q455K/Q455K)", "assay": "In vivo evaluation in FECD model mice", "settings": "ophthalmic solution 0.1 mM, 1 mM, 10 mM, 2 μl twice daily, 3 months", "experimental": "In the present example, mice having a type 8 collagen mutation (Col8a2^Q455K/Q455K) are used as Fuchs corneal endothelial dystrophy (FECD) model mice.\nGrading of the severity of FECD was performed on the basis of corneal endothelium images prior to instillation testing, and FECD model mice aged 20-24 weeks with similar symptoms were used. The prepared AKP-001 ophthalmic solution (0.1 mM, 1 mM, and 10 mM) is instilled into the left and right eyes, 2 μl at a time, twice daily in the morning and evening for 45 mice. Otsuka Normal Saline (Otsuka Pharmaceutical Co., Ltd.) is used as a control. The instillation period is set to be 3 months, during which the person in charge of the experimentation carries out the experimentation in a blinded state regarding the AKP-001 ophthalmic solution and the control ophthalmic solution.\nPrior to the start of the instillation testing, corneal endothelial images are observed with a contact corneal endothelial specular (KSSP slit-scanning wide-field contact specular microscope (Konan medical Inc., Hyogo, Japan)) to conduct grading. After starting the instillation testing, the corneal endothelial images of the mice are observed once every 4 weeks using the contact corneal endothelial specular to evaluate the effectiveness of the AKP-001 ophthalmic solution."}}}
{"smiles": "O=C(Cc1c(F)cccc1Cl)Nc1onc(-c2ccc(F)cc2)c1-c1ccncn1", "note": "[AKP-001, 5-[(2-chloro-6-fluorophenyl)acetylamino]-3-(4-fluorophenyl)-4-(4-pyrimidinyl)isoxazole]", "values": [{"measurement": "damage to the corneal endothelial cells", "setting": "[1]", "result": "suppression of damage to the corneal endothelial cells was observed"}, {"measurement": "N-cadherin immunostaining", "setting": "corneal endothelium; eyeball instilled 10 times", "result": "Expression along the cell membrane"}, {"measurement": "Na+/K+-ATPase immunostaining", "setting": "corneal endothelium; eyeball instilled 10 times", "result": "Expression along the cell membrane"}, {"measurement": "ZO-1 immunostaining", "setting": "corneal endothelium; eyeball instilled 10 times", "result": "Expression along the cell membrane"}, {"measurement": "actin staining, form of the corneal endothelium", "setting": "corneal endothelium; eyeball instilled 10 times", "result": "polygonal paving stones"}, {"measurement": "Annexin V and PI staining (cell death)", "setting": "corneal endothelium; rabbit, in vivo", "result": "Neither staining with Annexin V nor PI was observed"}, {"measurement": "decrease in corneal endothelial cell density compared to the control", "setting": "[2]", "result": "suppressed"}, {"measurement": "percentage of the area of guttae compared to the control", "setting": "[2]", "result": "decreased"}]}
